Data published in ChEMBL document CHEMBL1201862, “PubChem BioAssay data set” (2004).
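Compound exposure: 48 hours, 5 concentrations, 96-well plates. Here, GI50 denotes the concentration required for 50% inhibition of growth.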 Activity calls are given as the source filed them. Rule as the data show it: active = GI50 up to about 1.1 µM and inactive = higher.

Columns and labels:
Test in all cases: NCI tumour cell line growth inhibition, 48 h
HCT-15 = tested on: HCT-15
KM12 = tested on: KM12
UO-31 = tested on: UO-31
SN12C = tested on: SN12C
ACHN = tested on: ACHN
EKVX = tested on: EKVX
OVCAR-8 = tested on: OVCAR-8
COLO 205 = tested on: COLO 205
OVCAR-3 = tested on: OVCAR-3
A498 = tested on: A498
SF-268 = tested on: SF-268
SK-OV-3 = tested on: SK-OV-3
NCI-H460 = tested on: NCI-H460
OVCAR-4 = tested on: OVCAR-4
OVCAR-5 = tested on: OVCAR-5
RXF 393 = tested on: RXF 393
CCRF-CEM = tested on: CCRF-CEM

| SMILES | GI50 (HCT-15) [µM] | GI50 (KM12) | GI50 (UO-31) | GI50 (SN12C) | GI50 (ACHN) | GI50 (EKVX) | GI50 (OVCAR-8) | GI50 (COLO 205) | GI50 (OVCAR-3) | GI50 (A498) | GI50 (SF-268) | GI50 (SK-OV-3) | GI50 (NCI-H460) | GI50 (OVCAR-4) | GI50 (OVCAR-5) | GI50 (RXF 393) | GI50 (CCRF-CEM) |
| --- | --- | --- | --- | --- | --- | --- | --- | --- | --- | --- | --- | --- | --- | --- | --- | --- | --- |
| O=C1/C=C(/c2ccc(O)cc2)[C@@H](O)Cc2ccc(O)cc2O1 | > 100 | 88.1 µM (inactive) | 85.3 µM (inactive) | 85.9 µM (inactive) | 92.7 µM (inactive) | > 100 µM (inactive) | > 100 µM (inactive) | > 100 µM (inactive) | > 100 µM (inactive) | 2.25 µM (inactive) | 45.1 µM (inactive) | 35.7 µM (inactive) | 62.4 µM (inactive) | > 100 µM (inactive) | > 100 µM (inactive) | – | – |
| O=C(CC1(O)C(=O)Nc2ccccc21)c1cccc(O)c1 (centres undefined) | > 100 | – | 46.1 µM (inactive) | > 100 µM (inactive) | > 100 µM (inactive) | > 100 µM (inactive) | > 100 µM (inactive) | > 100 µM (inactive) | > 100 µM (inactive) | > 100 µM (inactive) | > 100 µM (inactive) | > 100 µM (inactive) | > 100 µM (inactive) | > 100 µM (inactive) | > 100 µM (inactive) | > 100 µM (inactive) | – |
| Cc1cc(N(CCC#N)CCC#N)ccc1/C=C(\NC(=O)/C=C/c1ccccc1)NC(=O)Nc1ccc(Cl)cc1 | > 100 | 15 µM (inactive) | 74.1 µM (inactive) | > 100 µM (inactive) | 7.28 µM (inactive) | 47.9 µM (inactive) | 80 µM (inactive) | > 100 µM (inactive) | 80.5 µM (inactive) | > 100 µM (inactive) | 62.2 µM (inactive) | – | > 100 µM (inactive) | 18.9 µM (inactive) | > 100 µM (inactive) | 15.7 µM (inactive) | > 100 µM (inactive) |
| C=Nc1ccc([N+](=O)[O-])cc1 | > 60.1 | > 100 µM (inactive) | > 84.9 µM (inactive) | > 65.3 µM (inactive) | > 100 µM (inactive) | > 100 µM (inactive) | > 100 µM (inactive) | > 100 µM (inactive) | > 100 µM (inactive) | > 100 µM (inactive) | > 100 µM (inactive) | > 100 µM (inactive) | > 59.4 µM (inactive) | > 100 µM (inactive) | > 100 µM (inactive) | – | > 63.1 µM (inactive) |
| COC1=CC(=O)C2[C@H]3Cc4ccccc4[C@H]3C2(C)C1=O (some centres undefined) | 94.6 | > 100 µM (inactive) | 34.7 µM (inactive) | – | > 100 µM (inactive) | > 100 µM (inactive) | > 100 µM (inactive) | > 100 µM (inactive) | > 100 µM (inactive) | > 100 µM (inactive) | > 100 µM (inactive) | > 100 µM (inactive) | > 100 µM (inactive) | > 100 µM (inactive) | > 100 µM (inactive) | > 100 µM (inactive) | 55.2 µM (inactive) |
| c1cncc(C2N3CCCCC3[C@@H]3c4[nH]c5ccccc5c4CCN23)c1 (some centres undefined) | > 100 | – | > 100 µM (inactive) | > 100 µM (inactive) | > 100 µM (inactive) | > 100 µM (inactive) | > 100 µM (inactive) | – | > 100 µM (inactive) | > 100 µM (inactive) | > 100 µM (inactive) | > 100 µM (inactive) | > 100 µM (inactive) | > 100 µM (inactive) | > 100 µM (inactive) | 21.1 µM (inactive) | > 100 µM (inactive) |
| CCNC(=O)O/N=C1\CCC2[C@@H]3CC=C4C[C@@H](OC(=O)NCC)CC[C@]4(C)C3CC[C@]12C (some centres undefined) | 2.15 | 2.9 µM (inactive) | 1.21 µM (inactive) | 2.65 µM (inactive) | 1.38 µM (inactive) | 0.735 µM (active) | 4.03 µM (inactive) | 0.387 µM (active) | 2.21 µM (inactive) | 22.3 µM (inactive) | 2.94 µM (inactive) | 7.82 µM (inactive) | 1.83 µM (inactive) | 1.55 µM (inactive) | 2.58 µM (inactive) | 3.42 µM (inactive) | – |
| C#CC1(O)CCC2C3CCc4cc(Oc5nc(F)nc(-c6c7ccccc7c7sc8ccccc8n67)n5)ccc4C3CC[C@@]21C (some centres undefined) | > 100 | > 100 µM (inactive) | > 100 µM (inactive) | – | > 100 µM (inactive) | – | > 100 µM (inactive) | > 100 µM (inactive) | > 100 µM (inactive) | – | > 100 µM (inactive) | – | > 100 µM (inactive) | > 100 µM (inactive) | > 100 µM (inactive) | – | 35.2 µM (inactive) |
| CCCN(CCC)c1c([N+](=O)[O-])cc(C(=O)N(C)C)cc1[N+](=O)[O-] | 40.4 | > 100 µM (inactive) | 92.9 µM (inactive) | > 100 µM (inactive) | 16.4 µM (inactive) | 37.8 µM (inactive) | > 100 µM (inactive) | 76.4 µM (inactive) | 75 µM (inactive) | – | > 100 µM (inactive) | > 100 µM (inactive) | 47.3 µM (inactive) | 15.5 µM (inactive) | > 100 µM (inactive) | – | 28.4 µM (inactive) |
| N/N=C1\C(=O)N(C2CCCCCC2)C(=O)C1C(=O)NC1CCCCCC1 (centres undefined) | 30 | 39.5 µM (inactive) | 20.3 µM (inactive) | 27.9 µM (inactive) | 42.2 µM (inactive) | 32.7 µM (inactive) | 39.3 µM (inactive) | 35.1 µM (inactive) | 32.4 µM (inactive) | 38 µM (inactive) | 36.9 µM (inactive) | – | 42.7 µM (inactive) | 28.3 µM (inactive) | 39.3 µM (inactive) | 40 µM (inactive) | 25.4 µM (inactive) |
| COC(=O)[C@@H]1c2[nH]c3ccccc3c2C[C@@H]2c3ccccc3NC(=O)[C@@H]21 | > 100 | > 100 µM (inactive) | > 100 µM (inactive) | > 78.3 µM (inactive) | > 100 µM (inactive) | 53.5 µM (inactive) | 21.3 µM (inactive) | > 82.2 µM (inactive) | > 53.6 µM (inactive) | > 100 µM (inactive) | > 31.6 µM (inactive) | 20.7 µM (inactive) | > 100 µM (inactive) | – | > 100 µM (inactive) | 26.2 µM (inactive) | > 77.6 µM (inactive) |
| NC(=O)COc1c(Br)cc(Br)cc1Br | > 100 | > 100 µM (inactive) | > 100 µM (inactive) | > 100 µM (inactive) | > 100 µM (inactive) | > 100 µM (inactive) | > 100 µM (inactive) | > 100 µM (inactive) | > 100 µM (inactive) | – | > 100 µM (inactive) | > 100 µM (inactive) | > 100 µM (inactive) | 27.7 µM (inactive) | > 100 µM (inactive) | – | > 100 µM (inactive) |
| CN(Cc1ccccc1)C(=O)c1ccccc1C(=O)O | > 100 | > 100 µM (inactive) | > 100 µM (inactive) | > 100 µM (inactive) | > 100 µM (inactive) | > 100 µM (inactive) | > 100 µM (inactive) | > 100 µM (inactive) | > 100 µM (inactive) | – | > 100 µM (inactive) | > 100 µM (inactive) | > 100 µM (inactive) | > 100 µM (inactive) | > 100 µM (inactive) | > 100 µM (inactive) | > 100 µM (inactive) |
| C/C(CN1C(=O)c2ccccc2C1=O)=N\NS(=O)(=O)c1ccc(C)cc1 | > 100 | > 100 µM (inactive) | > 100 µM (inactive) | > 100 µM (inactive) | > 100 µM (inactive) | > 100 µM (inactive) | > 100 µM (inactive) | > 100 µM (inactive) | > 100 µM (inactive) | > 100 µM (inactive) | – | > 100 µM (inactive) | > 100 µM (inactive) | > 100 µM (inactive) | > 100 µM (inactive) | – | > 100 µM (inactive) |
| Cc1cc2c(=O)cc(-c3ccc(Cl)c(Cl)c3)oc2c(C(=O)O)c1C | > 100 | > 100 µM (inactive) | > 100 µM (inactive) | > 100 µM (inactive) | > 100 µM (inactive) | > 100 µM (inactive) | > 100 µM (inactive) | > 100 µM (inactive) | > 100 µM (inactive) | – | > 100 µM (inactive) | > 100 µM (inactive) | > 100 µM (inactive) | > 100 µM (inactive) | > 100 µM (inactive) | 76.6 µM (inactive) | > 100 µM (inactive) |
| CCOC(=O)C(C)(c1cn(C)c2ccccc12)c1cn(C)c2ccccc12 | > 100 | > 100 µM (inactive) | > 100 µM (inactive) | – | 77.1 µM (inactive) | > 100 µM (inactive) | 52.2 µM (inactive) | – | 45.8 µM (inactive) | > 100 µM (inactive) | – | > 100 µM (inactive) | > 100 µM (inactive) | 32.5 µM (inactive) | > 100 µM (inactive) | 44.5 µM (inactive) | > 100 µM (inactive) |
| O=C1CN(C(=O)c2ccccc2)Cc2[nH]c3ccccc3c21 | > 100 | > 100 µM (inactive) | > 100 µM (inactive) | > 100 µM (inactive) | > 100 µM (inactive) | > 100 µM (inactive) | > 100 µM (inactive) | > 100 µM (inactive) | > 100 µM (inactive) | – | – | > 100 µM (inactive) | > 100 µM (inactive) | > 100 µM (inactive) | > 100 µM (inactive) | > 100 µM (inactive) | > 100 µM (inactive) |
| COc1ccc2oc3c(OC)c(OC)c(OC)cc3c(=O)c2c1 | > 100 | – | > 100 µM (inactive) | > 100 µM (inactive) | > 100 µM (inactive) | 76 µM (inactive) | > 100 µM (inactive) | > 100 µM (inactive) | – | > 100 µM (inactive) | > 100 µM (inactive) | > 100 µM (inactive) | > 100 µM (inactive) | > 100 µM (inactive) | > 100 µM (inactive) | 21.4 µM (inactive) | > 100 µM (inactive) |
